# Like-named read-outs stand apart in the source and are kept apart here.
# T1: DeUB-PEPC (in vitro deubiquitinated p107 homotetrameric PEPC of germinating sorghum seeds; CP21) (Sorghum bicolor, UniProt P29195)
# T1 construct: p107 homotetramer; not phosphorylated at Ser7
# T1 sequence (P29195 1-960): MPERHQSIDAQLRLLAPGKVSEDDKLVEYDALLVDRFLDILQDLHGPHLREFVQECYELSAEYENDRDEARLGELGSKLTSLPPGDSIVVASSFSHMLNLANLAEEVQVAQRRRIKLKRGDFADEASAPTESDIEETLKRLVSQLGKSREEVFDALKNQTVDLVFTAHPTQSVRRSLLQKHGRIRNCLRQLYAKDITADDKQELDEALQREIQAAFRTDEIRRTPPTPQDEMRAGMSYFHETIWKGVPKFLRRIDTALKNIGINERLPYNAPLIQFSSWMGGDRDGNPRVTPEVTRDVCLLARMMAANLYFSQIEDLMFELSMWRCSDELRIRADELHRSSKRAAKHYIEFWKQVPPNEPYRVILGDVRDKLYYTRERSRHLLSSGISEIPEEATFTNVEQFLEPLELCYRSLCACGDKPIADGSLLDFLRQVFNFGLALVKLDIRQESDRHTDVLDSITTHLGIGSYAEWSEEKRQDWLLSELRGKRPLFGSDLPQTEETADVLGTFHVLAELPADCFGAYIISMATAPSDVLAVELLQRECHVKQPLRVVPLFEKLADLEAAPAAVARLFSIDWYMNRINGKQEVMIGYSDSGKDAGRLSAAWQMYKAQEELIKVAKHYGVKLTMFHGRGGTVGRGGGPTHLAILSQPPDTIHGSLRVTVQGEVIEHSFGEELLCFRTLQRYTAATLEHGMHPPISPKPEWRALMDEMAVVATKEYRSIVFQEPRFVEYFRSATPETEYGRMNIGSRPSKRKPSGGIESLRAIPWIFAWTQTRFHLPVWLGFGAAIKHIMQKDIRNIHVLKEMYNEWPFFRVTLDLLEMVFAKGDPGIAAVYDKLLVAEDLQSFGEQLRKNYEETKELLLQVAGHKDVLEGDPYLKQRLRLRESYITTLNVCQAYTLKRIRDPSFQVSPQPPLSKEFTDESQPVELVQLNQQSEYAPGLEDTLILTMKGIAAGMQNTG
# T2: UB-PEPC (purified monoubiquitinated p110:p107 heterotetrameric PEPC of germinating sorghum seeds; CP21) (Sorghum bicolor, UniProt P29195)
# T2 construct: native, purified from 48 h germinated seeds, untagged; intact N-terminus, not phosphorylated at Ser7; heterotetramer ~460 kDa of p110 and p107 in equivalent ratio; p110 = p107 monoubiquitinated at Lys624
# T2 sequence (P29195 1-960): T1 sequence (P29195 1-960)
# B1: DeUB-PEPC (in vitro deubiquitinated p107 homotetrameric PEPC of germinating sorghum seeds; CP21) (Sorghum bicolor) (protein)
# chain: T1 sequence (P29195 1-960)
# notes: p107 homotetramer; not phosphorylated at Ser7
# Columns and labels:
# [1] = target: T1, DeUB-PEPC (in vitro deubiquitinated p107 homotetrameric PEPC of germinating sorghum seeds; CP21); experiment: biochemical; design: PEPC activity with 2 mM metabolite at subsaturating 0.1 mM PEP, as per cent of control; settings: pH 8.0, 0.1 mM PEP; for remaining activity at 2000 µM: read-out: % of control remaining
# Experimental: (§1) The impact of various metabolite effectors (2mM each) on the activity of the purified, monoubiquitinated heterotetrameric sorghum seed PEPC (UB-PEPC) versus the in vitro deubiquitinated homotetrameric enzyme (deUB-PEPC) was assessed using suboptimal assay conditions (0.1mM PEP, pH 7.3 and 8.0). With the exception of L-malate, monoubiquitination of germinating sorghum seed PEPC (CP21) exerted little to no influence in the response to the metabolites tested (Supplementary Table S2 at JXB online). […] In addition, the K m(PEP) value of UB-PEPC appeared to be slightly higher than that of deUB-PEPC, although the differences were not statistically significant (Table 1). Similarly, monoubiquitination of COS and harsh hakea Class-1 PEPCs is inhibitory, as it enhances sensitivity to allosteric inhibitors such as L-malate and L-aspartate, while interfering with the enzyme’s ability to bind PEP ([Uhrig et al., 2008]; [Shane et al., 2013]). Apparent K m and IC50 (concentration of inhibitor producing 50% inhibition) values were calculated using a computer kinetics program as previously described ([Tripodi et al., 2005]). All kinetic parameters are the means of three independent experiments and are reproducible to within ±15% (SE) of the mean value. Stock solutions of metabolites were made equimolar with MgCl2 and adjusted to pH 7.5.
# [2] = target: T1, DeUB-PEPC (in vitro deubiquitinated p107 homotetrameric PEPC of germinating sorghum seeds; CP21); experiment: biochemical; design: PEPC activity of purified enzyme with 2 mM metabolite effector at subsaturating 0.1 mM PEP, relative to control; settings: pH 7.3, 0.1 mM PEP; for remaining activity at 2000 µM: read-out: % of control remaining
# Experimental: as §1
# [3] = target: T2, UB-PEPC (purified monoubiquitinated p110:p107 heterotetrameric PEPC of germinating sorghum seeds; CP21); experiment: biochemical; design: PEPC activity with 2 mM metabolite at subsaturating 0.1 mM PEP, as per cent of control; settings: pH 8.0, 0.1 mM PEP; read-out: % of control remaining
# Experimental: as §1
# [4] = target: T2, UB-PEPC (purified monoubiquitinated p110:p107 heterotetrameric PEPC of germinating sorghum seeds; CP21); experiment: biochemical; design: PEPC activity of purified enzyme with 2 mM metabolite effector at subsaturating 0.1 mM PEP, relative to control; settings: pH 7.3, 0.1 mM PEP; read-out: % of control remaining
# Experimental: as §1
# [5] = target: T1, DeUB-PEPC (in vitro deubiquitinated p107 homotetrameric PEPC of germinating sorghum seeds; CP21); experiment: spectrophotometric, NADH at […] nm, coupled with malate dehydrogenase; format: biochemical; settings: read-out: pH 7.3 / DeUB-PEPC
# [6] = target: p107, non-ubiquitinated 107 kDa plant-type PEPC (PTPC) subunit encoded by sorghum CP21 (Sorghum bicolor (endogenous in germinated seeds)) (UniProt P29195); experiment: SEC; Superdex-200 HR 16/60 gel filtration FPLC (calibrated column) of native PEPC purified from 48 h germinated sorghum seeds, in buffer E (50 mM HEPES-KOH pH 8.0, 5 mM MgCl2, 1 mM DTT, 20% glycerol, 100 mM KCl, phosphatase inhibitors); fractions immunoblotted with anti-COS PTPC; native molecular mass estimated as ~460 kDa
# [7] = substrate: C=C(OP(=O)(O)O)C(=O)O; experiment: purified protein; format: biochemical, Sorghum bicolor; settings: pH 8.0, 25 °C, 5 mM NaHCO3, 5 mM MgCl2, apparent Km, deubiquitinated enzyme
Molecule,remaining activity at 2000 µM [3],remaining activity at 2000 µM [1],remaining activity at 2000 µM [4],remaining activity at 2000 µM [2],other results
Nc1ncnc2c1ncn2[C@@H]1O[C@H](COP(=O)(O)OP(=O)(O)OP(=O)(O)O)[C@@H](O)[C@H]1O [ATP],,,,,% of control remaining ([1]; 2000 µM): 111%; % of control remaining ([2]; 2000 µM): 88%
N[C@@H](CC(=O)O)C(=O)O [Aspartate],109%,109%,94%,91%,
O=P(O)(O)OC1O[C@H](CO)[C@@H](O)[C@H](O)[C@H]1O (stereo partly shown) [Glc-1-P],116%,116%,115%,111%,
O=P(O)(O)OC[C@H]1OC(O)[C@H](O)[C@@H](O)[C@@H]1O (stereo partly shown) [Glc-6-P],121%,120%,127%,112%,
O=P(O)(O)OCC(O)CO (stereo not shown) [Glycerol-3-P],124%,120%,107%,108%,
O=C(O)C[C@H](O)C(=O)O [L-malate],,,53%,67%,IC50 [5]: 3620 ± 240 µM
O=C(O)CC(O)C(=O)O (stereo not shown) [Malate],93%,93%,,,
O=C[C@H](O)[C@H](O)[C@H](O)COP(=O)(O)O [Ribose-5-P],105%,105%,98%,98%,
O=C(O)C[C@H](C(=O)O)[C@@H](O)C(=O)O [isocitrate],38%,38%,47%,47%,IC50 [5]: 1370 ± 120 µM
"p110, 110 kDa plant-type PEPC (PTPC) subunit encoded by sorghum CP21, monoubiquitinated at Lys624 (from UniProt P29195 1-960) (enzyme)",,,,,stoichiometry N (subunits in the oligomer) [6]: 4
B1,,,,,Km [7]: 36 ± 5 µM

# Reference: paper PMC3904705, “In vivo monoubiquitination of anaplerotic phosphoenolpyruvate carboxylase occurs at Lys624 in germinating sorghum seeds” (Journal of Experimental Botany, 2013)
